Assay [1] relates to rice. Nature of the assay: Water loss rate of cut third leaves of compound-treated rice. The class given is in vivo. As to conditions: one day. The protocol:
(§1) In addition, the third leaves of rice of the experimental and control groups treated with ABA (5 μM) and S17 (various concentrations, 10 and 20 μM), respectively, for one day were cut, and the water loss rate was compared therebetween. […] The amount of water in a 50-ml tube that was used for 2 days by three Dongjin rice plants which had been grown for 14 days in a nutrient solution was measured. The control group used 19.9 g of water on average for 2 days, the group treated with ABA (5 μM) used 8.7 g of water, and the groups treated with 10 μM S17 and 20 μM S17 used 14.7 g and 12.5 g of water, respectively (FIG. 2E).

Assay [2] has as its system pABRE-DRE::fLUC with OsPP2C51 or OsPP2C68. Nature of the assay: pABRE-DRE::fLUC reporter in rice protoplasts co-expressing OsPP2C51 or OsPP2C68 (ABA signaling inhibitors). It is filed as cell-based. The source says:
In addition, in order to investigate the signal transduction process activated by the S17 compound, the dephosphorylation enzyme, OsPP2C51 or OsPP2C68 gene, which inhibits ABA signaling, and reporter transporters (pABRE-DRE::fLUC, pUbi10::rLUC) were simultaneously transiently expressed in rice protoplasts and then treated with ABA and the S17 compound to identify the expression of the reporter.

Another assay deals with Dongjin rice plants. As to the kind of experiment: Water consumption of compound-treated rice plants in 50-ml tube. As to conditions: three 14-day plants, control 19.9 g. The class given is in vivo. The protocol: as §1
For assay [3], the system named is rice. As to the kind of experiment: Osmotic stress resistance of S17-treated rice using mannitol. It is filed as in vivo. The procedure:
Thus, the effects of S17 on osmotic stress were detected. Osmotic stress was induced using mannitol in 14-day-old rice after treatment with S17. The experimental group treated with 5 μM and 10 μM of S17 and the untreated control group were treated with 0 mM, 100 mM, and 200 mM of mannitol, and the growth of these plants was observed (FIG. 3A).
In addition, in order to determine the osmotic stress resistance and growth-enhancing effect, osmotic stress was induced using mannitol in 14-day-old rice treated with S17. The experimental group treated with 5 μM and 10 μM of S17 and the untreated control group were treated with 0 mM, 100 mM, and 200 mM of mannitol, and then the water consumption of these plants and the dry weight after the experiment were measured (FIG. 3). […] As the concentration of mannitol increased, the amount of water used in plants decreased due to osmotic pressure stress.

The subject of assay [4] is rice. Nature of the assay: Drought resistance (drying experiment) of S17-treated rice. It is filed as in vivo. The protocol:
An experimental group, in which rice grown in a nutrient solution for 14 days was treated with S17, was compared with an untreated control group to determine whether or not S17 induces drought resistance. 3 days after treatment with S17, the nutrient solution fed to the experimental and control plants was removed to induce drought stress. The plants were allowed to be dried (for 12 to 24 hours) and water was fed again to the control and experimental groups, and the rate of the surviving plants was measured (FIGS. 2A and 2B). […] The dry weight of the experimental group was measured. […] This is considered to be due to the effect of inhibiting growth occurring during the treatment with S17.

Another assay relates to pABRE-DRE::fLUC. Nature of the assay: Induction of environmental stress response: pABRE-DRE::fLUC reporter in rice protoplasts. It is filed as cell-based. As to conditions: 15 hours after treatment. The procedure: Rice protoplasts were transiently transformed with a pABRE-DRE::fLUC transporter, which induces the expression of the reporter gene, luciferase, in response to the plant environmental stress resistance hormone ABA (abscisic acid), and were then treated with 90 kinds of compounds having a structure similar to ABA received from the Korea Chemical Bank, and a compound that enhances the expression of the reporter was selected from the compounds and referred to as “S17”.
In order to verify the effect of inducing response to environmental stress of the S17 compound compared with ABA, pABRE-DRE::fLUC and the transformation marker pUbi10::rLUC transporter were transiently expressed in rice protoplasts, and then treated with ABA and the S17 compound. After 15 hours, the degree of expression of fLUC was detected.

With `CC1=CC(=O)CC(C)(C)[C@@]1(O)/C=C/C(C)=C\C(=O)O` [ABA, abscisic acid, reference compound], in the assay on rice [1] (ABA 5 μM), the water loss rate result was “decreased water loss rate”. In addition, in assay [2], the “expression of fLUC with OsPP2C51 or OsPP2C68” value is given as “inhibited”. For the same molecule, the “amount of water used for 2 days” value with Dongjin rice plants (5 μM) was determined as 8.7 g.
`O=C(O)/C=C/c1ccsc1` [S17]: the water loss rate result in the assay with rice [1] (S17 10 and 20 μM) is reported as “decreased water loss rate”. Further, the “expression of fLUC with OsPP2C51 or OsPP2C68” value in assay [2] is recorded as “induced”. The “water consumption rate compared to the control group” value in the assay on rice [3] (5 μM S17, 0 mM mannitol) stood at 97.5%; with rice [3] (10 μM S17, 0 mM mannitol), 78%. For the same molecule, the “amount of water used vs control not treated with S17” value with rice [3] (5 μM S17, 100 mM mannitol) was 120%; in the assay on rice [3] (5 μM S17, 200 mM mannitol), 119%; in the assay with rice [3] (10 μM S17, 100 mM mannitol), 106%; in the assay on rice [3] (10 μM S17, 200 mM mannitol), 128%. Further, the “dry weight compared to the group treated with 0 μM of S17” value in the assay with rice [3] (5 μM S17, 100 mM mannitol) amounted to 101%; in the assay with rice [3] (5 μM S17, 200 mM mannitol), 106%; with rice [3] (5 μM S17, no mannitol), 97%; in the assay with rice [3] (10 μM S17, 100 mM mannitol), 104%; with rice [3] (10 μM S17, 200 mM mannitol) it was 112%; in the assay on rice [3] (10 μM S17, no mannitol) it was 82%. Besides, the “leaf curling caused by osmotic stress” value with rice [3] (5 μM and 10 μM S17, 0, 100, 200 mM mannitol) is “significantly reduced”. For the same molecule, the entries for the “amount of water used for 2 days” value with Dongjin rice plants (10 μM) and with Dongjin rice plants (20 μM) were 14.7 g and 12.5 g, respectively. Besides, the average survival rate in the assay on rice [4] (14-day rice, 3 days after S17 treatment, dried 12 to 24 hours, water fed again, control 16.6%) was found to be 76.7%. Moreover, the “dry weight relative to average weight of control group” value in the assay with rice [4] (after drying experiment) amounted to 91.5%. For the same molecule, in the assay with pABRE-DRE::fLUC, the “degree of expression of fLUC” value was “significantly expressed”.
